Reference: ChEMBL document CHEMBL1140081 (J Med Chem, 2008)

Columns and labels:
[1] = tested on: Human immunodeficiency virus 1; assay: Antiviral activity against HIV1 3B in human MT4 cells in presence of 10% heat-inactivated fetal bovine serum; details: Human immunodeficiency virus 1, 3B, read-out: CIC95
[2] = target: Human immunodeficiency virus type 1 integrase (Human immunodeficiency virus 1, UniProt Q7ZJM1); assay: Inhibition of HIV1 recombinant integrase strand transfer activity
[3] = tested on: Human immunodeficiency virus 1; assay: Antiviral activity against HIV1 3B in human MT4 cells in presence of 50% normal human serum; assay type: functional; details: Human immunodeficiency virus 1, 3B, MT4; read-out: CIC95
[4] = tested on: Human immunodeficiency virus 1; assay: Antiviral activity against HIV1 with integrase T66I/M154 mutation by single cycle infectivity assay in presence of 10%FBS; assay type: functional
[5] = tested on: Human immunodeficiency virus 1; assay: Antiviral activity against HIV1 with integrase T125K/F121Y mutation by single cycle infectivity assay in presence of 10%FBS; assay type: functional
[6] = tested on: Human immunodeficiency virus 1; assay: Antiviral activity against HIV1 with integrase N155S mutation by single cycle infectivity assay in presence of 10%FBS; assay type: functional
[7] = tested on: Human immunodeficiency virus 1; assay: Antiviral activity against HIV1 with integrase T66I/L74M/V151I mutation by single cycle infectivity assay in presence of 10%FBS; assay type: functional
[8] = tested on: Human immunodeficiency virus 1; assay: Antiviral activity against HIV1 with integrase T66I/S153Y mutation by single cycle infectivity assay in presence of 10%FBS; assay type: functional

Chain of Human immunodeficiency virus type 1 integrase (Q7ZJM1 whole entry): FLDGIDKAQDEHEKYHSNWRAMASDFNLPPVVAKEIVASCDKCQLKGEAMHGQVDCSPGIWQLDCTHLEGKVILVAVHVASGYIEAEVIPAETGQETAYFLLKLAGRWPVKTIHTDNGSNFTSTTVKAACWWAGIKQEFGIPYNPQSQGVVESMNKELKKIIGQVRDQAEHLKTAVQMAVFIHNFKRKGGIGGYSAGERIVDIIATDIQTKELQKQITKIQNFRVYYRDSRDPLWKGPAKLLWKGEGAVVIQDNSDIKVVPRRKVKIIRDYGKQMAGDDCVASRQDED

SMILES	IC50 [2] [nM]	IC95 [1] [nM]	IC95 [3] [nM]	Activity [4] [%]	Activity [5] [%]	Activity [6] [%]	Activity [7] [%]	Activity [8] [%]
CN1CCN(C(=O)C(=O)NC(C)(C)c2nc(C(=O)NCc3ccc(F)cc3)c(O)c(=O)n2C)CC1	26	125	250	–	–	–	–	–
CNC(=O)c1nc(C(C)(C)NC(=O)C(=O)N(C)C)n(C)c(=O)c1O	> 5000	> 10000	> 10000	–	–	–	–	–
CN(C)C(C)(C)c1nc(C(=O)NCc2ccc(F)cc2)c(O)c(=O)n1C	230	1000	> 1000	–	–	–	–	–
COC(=O)C(=O)NC(C)(C)c1nc(C(=O)NCc2ccc(F)cc2)c(O)c(=O)n1C	15	1000	> 1000	–	–	–	–	–
CN(C)C(=O)NC(C)(C)c1nc(C(=O)NCc2ccc(F)cc2)c(O)c(=O)n1C	18	1000	> 1000	–	–	–	–	–
Cn1c(C(C)(C)NC(=O)C(=O)N2CCOCC2)nc(C(=O)NCc2ccc(F)cc2)c(O)c1=O	20	125	125	–	–	–	–	–
O=C(/C=C(\O)c1nc[nH]n1)c1ccc(Cc2ccc(F)cc2)o1 [S-1360]	–	–	–	20	50	>50	100	50

Further compounds by falling IC50 [2], results first:

IC50 [2] [nM]	SMILES	IC95 [1] [nM]	IC95 [3] [nM]	Activity [4] [%]	Activity [5] [%]	Activity [6] [%]	Activity [7] [%]	Activity [8] [%]
15	CN(C)C(=O)C(=O)N(C)C(C)(C)c1nc(C(=O)NCc2ccc(F)cc2)c(O)c(=O)n1C	62	125	–	–	–	–	–
12	CN(C)S(=O)(=O)NC(C)(C)c1nc(C(=O)NCc2ccc(F)cc2)c(O)c(=O)n1C	125	500	–	–	–	–	–
8	Cn1c(C(C)(C)NS(C)(=O)=O)nc(C(=O)NCc2ccc(F)cc2)c(O)c1=O	62	1000	–	–	–	–	–
7	CC(=O)NC(C)(C)c1nc(C(=O)NCc2ccc(F)cc2)c(O)c(=O)n1C	310	400	–	–	–	–	–
7	Cn1c(C(C)(C)NC(=O)c2ncccn2)nc(C(=O)NCc2ccc(F)cc2)c(O)c1=O	20	50	–	–	–	–	–
4	Cc1nnc(C(=O)NC(C)(C)c2nc(C(=O)NCc3ccc(F)cc3)c(O)c(=O)n2C)[nH]1	250	1000	–	–	–	–	–
4	CN(C)C(=O)C(=O)NC(C)(C)c1nc(C(=O)NCc2ccc(F)cc2S(C)(=O)=O)c(O)c(=O)n1C	125	125	–	–	–	–	–
4	Cn1c(C(C)(C)NC(=O)C(=O)O)nc(C(=O)NCc2ccc(F)cc2)c(O)c1=O	250	1000	–	–	–	–	–
